{
  "source": "paper PMC9311539",
  "about": "“Antibacterial Activity against Clinical Isolates and In Vivo Efficacy of Coralmycins” (Antibiotics, 2022)",
  "key": {"MSSA": {"test_system": "MSSA", "test": "MIC, broth microdilution, clinical isolates: MSSA", "assay_type": "cell-based", "conditions": "Staphylococcus aureus, 26 clinical isolates", "method": "(§1) To assess the MICs for antibiotic susceptibility, Gram-positive bacteria isolated from human clinical specimens were obtained from several general hospitals in Seoul, Korea, during 2002–2018. Staphylococcus aureus Giorgio and Streptococcus pneumoniae ATCC49619 were used to test in vivo efficacies against […], in mice.\n(§2) The MICs of the antimicrobial agents were determined by a twofold microdilution broth method, as described by the Clinical and Laboratory Standards Institute. Briefly, test organisms were grown on Mueller–Hinton agar (MHA, BD Difco, Sparks, MD, USA) plates, subcultured into cation-adjusted Mueller–Hinton broth (CAMHB, BD Difco, Sparks, MD, USA), and incubated for 18 h at 35 °C. For S. pneumoniae culture, 5% sheep blood (Hanil Comed, Seongnam, Korea) was added. The cultured bacteria were diluted using phosphate-buffered saline (PBS) to achieve a bacterial cell density of approximately 5 × 10^6 CFU/mL. All test organisms were loaded into 96-well plates containing serial dilutions of the antimicrobial agents to achieve a concentration of 5 × 10^4 CFU/well. The plates were incubated at 35 °C for 18–20 h and examined for bacterial growth."}, "MRSA": {"test_system": "MRSA", "test": "MIC, broth microdilution, clinical isolates: MRSA", "assay_type": "cell-based, Staphylococcus aureus", "conditions": "Staphylococcus aureus, MRSA, 42 clinical isolates", "method": "as §1, §2"}, "[1]": {"test_system": "CNS (coagulase-negative staphylococci)", "test": "MIC, broth microdilution, clinical isolates: CNS", "assay_type": "cell-based", "conditions": "31 clinical isolates", "method": "as §1, §2"}, "VRE": {"test_system": "VRE", "test": "MIC, broth microdilution, clinical isolates: VRE", "assay_type": "cell-based, vancomycin-resistant Enterococcus", "method": "as §1, §2"}, "S. pneumoniae": {"test_system": "S. pneumoniae", "test": "MIC, broth microdilution, clinical isolates: S. pneumoniae", "assay_type": "cell-based, Streptococcus pneumoniae", "method": "as §1, §2"}, "[2]": {"test_system": "Vancomycin-sensitive E. faecalis", "test": "MIC, broth microdilution, clinical isolates: vancomycin-sensitive E. faecalis", "assay_type": "cell-based, Enterococcus faecalis", "conditions": "Enterococcus faecalis, 32 clinical isolates", "method": "as §1, §2"}, "[3]": {"test_system": "Vancomycin-sensitive E. faecium", "test": "MIC, broth microdilution, clinical isolates: vancomycin-sensitive E. faecium", "assay_type": "cell-based, Enterococcus faecium", "conditions": "Enterococcus faecium, 32 clinical isolates", "method": "as §1, §2"}, "S. aureus Giorgio [4]": {"test_system": "S. aureus Giorgio", "test": "MIC against S. aureus Giorgio", "assay_type": "cell-based, Staphylococcus aureus", "conditions": "Staphylococcus aureus; read-out: MIC", "method": "as §2"}, "S. pneumoniae ATCC49619 [5]": {"test_system": "S. pneumoniae ATCC49619", "test": "MIC against S. pneumoniae ATCC49619", "assay_type": "cell-based", "conditions": "Streptococcus pneumoniae, ATCC49619; read-out: MIC", "method": "as §2"}, "MRSA CCARM 3167 [6]": {"test_system": "MRSA CCARM 3167", "test": "MIC against MRSA CCARM 3167", "assay_type": "cell-based", "conditions": "Staphylococcus aureus; read-out: MIC", "method": "as §2"}, "VRE 3 [7]": {"test_system": "VRE 3", "test": "MIC against VRE 3", "assay_type": "cell-based, vancomycin-resistant Enterococcus", "conditions": "Enterococcus, read-out: MIC", "method": "as §2"}, "S. aureus Giorgio [8]": {"test_system": "S. aureus Giorgio", "test": "Time-kill assay, S. aureus Giorgio", "assay_type": "cell-based, Staphylococcus aureus", "conditions": "2× and 4× MIC, 24 h", "method": "(§3) Time-kill analysis was performed by the NCCLS M26-A method. The test organisms (S. aureus Giorgio, S. pneumoniae ATCC49619, MRSA CCARM 3167, and VRE 3) incubated in CAMHB for 18 h at 35 °C were diluted to 10^5 CFU/mL with fresh CAMHB, and the diluted cultures were preincubated for 2 h. For S. pneumoniae culture, 5% sheep blood (Hanil Comed, Seongnam, Korea) was added. […] Culture aliquots (0.1 mL) were removed after 0, 2, 4, 6 and 24 h of incubation, and serial 10-fold dilutions were prepared in saline as needed. The numbers of viable cells were determined on drug-free MHA plates after 20 h of incubation. A compound was considered bactericidal if the original inoculum was reduced by 3 log CFU/mL (99.9%) at each concentration or was considered bacteriostatic if the inoculum was reduced by 0–3 log CFU/mL."}, "S. pneumoniae ATCC49619 [9]": {"test_system": "S. pneumoniae ATCC49619", "test": "Time-kill assay, S. pneumoniae ATCC49619", "assay_type": "cell-based, Streptococcus pneumoniae", "conditions": "2× and 4× MIC, 24 h", "method": "as §3"}, "MRSA CCARM 3167 [10]": {"test_system": "MRSA CCARM 3167", "test": "Time-kill assay, MRSA CCARM 3167", "assay_type": "cell-based, Staphylococcus aureus", "conditions": "2× and 4× MIC, 24 h", "method": "as §3"}, "VRE 3 [11]": {"test_system": "VRE 3", "test": "Time-kill assay, VRE 3", "assay_type": "cell-based, vancomycin-resistant Enterococcus", "conditions": "2× and 4× MIC, 24 h", "method": "as §3"}, "S. pneumoniae ATCC49619 [12]": {"test_system": "S. pneumoniae ATCC49619", "test": "Neutropenic mouse respiratory tract infection model", "assay_type": "in vivo, female ICR mice", "method": "For the respiratory tract infection model, neutropenic mice were anesthetized and intranasally inoculated with a 50 μL suspension of S. pneumoniae ATCC49619 (4.4 × 10^8 CFU/mL). For the thigh infection model, the neutropenic mice were administered an intramuscular injection of a 100 μL suspension of S. aureus Giorgio (1 × 10^6 CFU/mL) into both thighs. For both models, four mice were included in each group. At 2 h after infection, two mice were sacrificed, and the infected thighs or lungs (n = 4) were excised to determine the initial bacterial levels. […] At 24 h after infection, the mice were sacrificed by cervical dislocation; their thighs or lungs were removed, homogenized, serially diluted with saline, and plated onto MHA to count the number of bacteria remaining. The number of viable bacterial cells (CFU) in the thighs or lungs of vehicle- and drug-treated mice was determined."}, "[13]": {"conditions": "cited from earlier work"}},
  "note": "Read-outs that look alike come from different tables or passages of the source.",
  "data": [
    {"smiles": "CC(=O)NC[C@H]1CN(c2ccc(N3CCOCC3)c(F)c2)C(=O)O1", "note": "[Linezolid]", "values": [
      {"measurement": "MIC50", "setting": "MSSA; read-out: MIC50", "result": 2, "unit": "µg/mL"},
      {"measurement": "MIC90", "setting": "MSSA; read-out: MIC90", "result": 2, "unit": "µg/mL"},
      {"measurement": "MIC50", "setting": "MRSA; read-out: MIC50", "result": 2, "unit": "µg/mL"},
      {"measurement": "MIC90", "setting": "MRSA; read-out: MIC90", "result": 4, "unit": "µg/mL"},
      {"measurement": "MIC50", "setting": "[1]; read-out: MIC50", "result": 2, "unit": "µg/mL"},
      {"measurement": "MIC90", "setting": "[1]; read-out: MIC90", "result": 4, "unit": "µg/mL"},
      {"measurement": "MIC90", "setting": "VRE; 46 clinical isolates", "result": 4, "unit": "µg/mL"},
      {"measurement": "MIC50", "setting": "VRE; Enterococcus, VRE, 46 clinical isolates, read-out: MIC50", "result": 2, "unit": "µg/mL"},
      {"measurement": "MIC90", "setting": "VRE; Enterococcus, 46 VRE isolates, read-out: MIC90", "result": 4, "unit": "µg/mL"},
      {"measurement": "MIC90", "setting": "S. pneumoniae; 27 clinical isolates", "result": 4, "unit": "µg/mL"},
      {"measurement": "MIC90", "setting": "S. pneumoniae; Streptococcus pneumoniae, 27 S. pneumoniae isolates, read-out: MIC90", "result": 4, "unit": "µg/mL"},
      {"measurement": "MIC50", "setting": "S. pneumoniae; Streptococcus pneumoniae, 27 clinical isolates, read-out: MIC50", "result": 2, "unit": "µg/mL"},
      {"measurement": "MIC50", "setting": "[2]; read-out: MIC50", "result": 2, "unit": "µg/mL"},
      {"measurement": "MIC90", "setting": "[2]; read-out: MIC90", "result": 4, "unit": "µg/mL"},
      {"measurement": "MIC50", "setting": "[3]; read-out: MIC50", "result": 2, "unit": "µg/mL"},
      {"measurement": "MIC90", "setting": "[3]; read-out: MIC90", "result": 4, "unit": "µg/mL"},
      {"measurement": "MIC", "setting": "S. aureus Giorgio [4]", "result": 2, "unit": "µg/mL"},
      {"measurement": "MIC", "setting": "S. pneumoniae ATCC49619 [5]", "result": 2, "unit": "µg/mL"},
      {"measurement": "MIC", "setting": "MRSA CCARM 3167 [6]", "result": 1, "unit": "µg/mL"},
      {"measurement": "MIC", "setting": "VRE 3 [7]", "result": 2, "unit": "µg/mL"},
      {"measurement": "time-kill activity", "setting": "S. aureus Giorgio [8]", "result": "bacteriostatic (considered bacteriostatic if the inoculum was reduced by 0–3 log CFU/mL)"},
      {"measurement": "time-kill activity", "setting": "S. pneumoniae ATCC49619 [9]", "result": "bacteriostatic (considered bacteriostatic if the inoculum was reduced by 0–3 log CFU/mL)"},
      {"measurement": "time-kill activity", "setting": "MRSA CCARM 3167 [10]", "result": "bacteriostatic (considered bacteriostatic if the inoculum was reduced by 0–3 log CFU/mL)"},
      {"measurement": "time-kill activity", "setting": "VRE 3 [11]", "result": "bacteriostatic (considered bacteriostatic if the inoculum was reduced by 0–3 log CFU/mL)"},
      {"measurement": "in vivo effect (bacteriostatic or bactericidal)", "setting": "S. pneumoniae ATCC49619 [12]; 4 mg/kg bid s.c.", "result": "bacteriostatic"},
      {"measurement": "in vivo effect (bacteriostatic or bactericidal)", "setting": "S. pneumoniae ATCC49619 [12]; 20 mg/kg bid s.c.", "result": "bactericidal"},
      {"measurement": "reduction of the starting bacterial burden compared to the 2-h control group", "setting": "S. pneumoniae ATCC49619 [12]; second trial, 20 mg/kg bid", "result": 0.75, "unit": "log10 CFU/lung"},
      {"measurement": "bound to plasma proteins", "setting": "[13]", "result": 18, "unit": "%"}
    ]}
  ]
}
